Columns and labels:
[1] = system: TNF-α; test: In vitro measurement of TNF-α in human PBMC (LPS stimulated); assay type: cell-based; conditions: for inhibition at 1 µM: NA = No activity, read-out: TNF-α Inhibition (%) at Conc. (1 μM); for inhibition at 10 µM: read-out: TNF-α Inhibition (%) at Conc. (10 μM)
Procedure: In Vitro Measurement of Tumor Necrosis Factor Alpha (TNF-α)
This assay determines the effect of test compounds on the production of TNF α in human Peripheral Blood Mononuclear Cells (PBMC). Compounds were tested for their ability to inhibit the activity of TNF α in human PBMC. PBMC were isolated from blood (of healthy volunteers) using BD Vacutainer CPT™ (Cell preparation tube, BD Bio Science) and suspended in RPMI medium (Physiol. Res. 52: 593-598, 2003). The test compounds were pre-incubated with PBMC (0.5 million/incubation well) for 15 minutes at 37° C. and then stimulated with Lipopolysaccharide (Escherichia coli: B4; 1 μg/ml) for 18 hours at 37° C. in 5% CO2. The levels of TNF-α in the cell culture medium were estimated using enzyme-linked immunosorbent assay performed in a 96 well format as per the procedure of the manufacturer (Cayman Chemical, Ann Arbor, USA).

[2] = system: TNF-α; test: LPS induced sepsis for measurement of TNF-α inhibition in mice; assay type: in vivo; conditions: 50 mg/kg, oral, mice, serum 90 minutes after LPS
Procedure: LPS Induced Sepsis for Measurement of TNF-α Inhibition in Mice
The LPS induced sepsis model in mice was performed as described by Les sekut et al (J Lab Clin Med 1994; 124:813-20). Female Swiss albino mice were selected and the body weights were equivalent within each group. The mice were fasted for 20 hours with free access to water. The mice were dosed orally with the test compound suspended in vehicle containing 0.5% Tween 80 in 0.25% Carboxy-methylcellulose sodium salt. The control mice were administered the vehicle alone. After 30 minutes of oral dosing, mice were injected with 500 μg of Lipopolysaccharide (Escherichia coli, LPS: B4 from Siga) in phosphate buffer saline solution into the intraperitoneal cavity of the mice. After 90 minutes of LPS administration mice were bled via retro-orbital sinus puncture. Blood samples were stored overnight at 4° C. Serum samples were collected by centrifuging the samples at 4000 rpm for 15 minutes at 4° C. Immediately the serum samples were analysed for TNF-α levels using commercially available mouse TNF-α ELISA kit (Amersham Biosciences) and assay was performed by the manufacturer instruction.
ED50 Measurement of TNF alpha Inhibition in Mice Sepsis Model

[3] = system: PDE4; test: PDE4 activity; assay type: biochemical; conditions: source Human U937 cells
Procedure: PDE4 Activity PDE4 inhibition was measured by following a literature assay procedure (Cortizo J et al., Br J Pharmacol., 1993, 108: 562-568. The assay method involves the following conditions. • Source: Human U937 cells • Substrate: 1.01 μM [^3H] camp+camp • Vehicle: 1% DMSO • Pre-Incubation Time/Temperature: 15 minutes at 25° C. • Incubation Time/Temperature. 20 minutes at 25° C. • Incubation buffer: 50 mM Tris-HCl, pH 7.5, 5 mM MgCl2 • Quantitation method: Quantitation of [^3H] Adenosine • Significance criteria: >50% of max stimulation or inhibition The results are tabulated as shown in the table XIII.

[4] = target: T1, purified recombinant COX-2 (Homo sapiens, UniProt P35354); test: COX-2 enzyme based assay; assay type: biochemical; conditions: NA = No activity, read-out: % Inhibition in rEnzyme Assay COX-2
T1 sequence (P35354 18-604): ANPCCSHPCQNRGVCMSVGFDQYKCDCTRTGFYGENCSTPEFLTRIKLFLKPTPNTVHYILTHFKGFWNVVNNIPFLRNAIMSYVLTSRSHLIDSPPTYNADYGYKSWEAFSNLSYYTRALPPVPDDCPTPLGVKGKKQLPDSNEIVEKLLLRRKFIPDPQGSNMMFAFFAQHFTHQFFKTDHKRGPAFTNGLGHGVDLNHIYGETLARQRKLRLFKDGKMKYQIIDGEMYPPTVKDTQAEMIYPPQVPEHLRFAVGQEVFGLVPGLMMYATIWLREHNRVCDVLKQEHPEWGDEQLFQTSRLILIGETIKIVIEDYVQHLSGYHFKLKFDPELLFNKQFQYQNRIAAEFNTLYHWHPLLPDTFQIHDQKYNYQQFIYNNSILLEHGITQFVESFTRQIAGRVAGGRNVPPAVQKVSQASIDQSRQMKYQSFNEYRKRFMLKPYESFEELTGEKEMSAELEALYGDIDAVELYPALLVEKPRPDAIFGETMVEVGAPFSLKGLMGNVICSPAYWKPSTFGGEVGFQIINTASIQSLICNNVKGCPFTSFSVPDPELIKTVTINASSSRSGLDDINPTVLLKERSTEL
Procedure: (§1) COX-1 and COX-2 Enzyme Based Assay
(§2) COX-1 and COX-2 enzyme based assays were carried out to check the inhibitory potential of the test compounds on the production of prostaglandin by purified recombinant COX-1/COX-2 enzyme (Proc. Nat. Acad. Sci. USA, 88, 2692-2696, 1991; J. Clin. Immunoassay 15, 116-120, 1992) In this assay, the potential of the test compound to inhibit the production of prostaglandin either by COX-1 or COX-2 from arachidonic acid (substrate) was measured. This was an enzyme based in-vitro assay to evaluate selective COX inhibition with good reproducibility.
(§3) Arachidonic acid was converted to PGH2 (Intermediate product) by COX1/COX-2 in the presence or absence of the test compound. The reaction was carried out at 37° C. and after 2 minutes it was stopped by adding 1M HCl. Intermediate product PGH2 was converted to a stable prostanoid product PGF2αby SnCl2 reduction. The amount of PGF2α, produced in the reaction was inversely proportional to the COX inhibitory potential of the test compound. The prostanoid product was quantified via enzyme immunoassay (EIA) using a broadly specific antibody that binds to all the major forms of prostaglandin, using Cayman ELISA kit as per the procedure outlined by the manufacturer (Cayman Chemicals, Ann Arbor, USA).

[5] = target: purified recombinant COX-1 (Homo sapiens, UniProt P23219); test: COX-1 enzyme based assay; assay type: biochemical; conditions: NA = No activity, read-out: % Inhibition in rEnzyme Assay COX-1
purified recombinant COX-1, sequence (P23219 24-599): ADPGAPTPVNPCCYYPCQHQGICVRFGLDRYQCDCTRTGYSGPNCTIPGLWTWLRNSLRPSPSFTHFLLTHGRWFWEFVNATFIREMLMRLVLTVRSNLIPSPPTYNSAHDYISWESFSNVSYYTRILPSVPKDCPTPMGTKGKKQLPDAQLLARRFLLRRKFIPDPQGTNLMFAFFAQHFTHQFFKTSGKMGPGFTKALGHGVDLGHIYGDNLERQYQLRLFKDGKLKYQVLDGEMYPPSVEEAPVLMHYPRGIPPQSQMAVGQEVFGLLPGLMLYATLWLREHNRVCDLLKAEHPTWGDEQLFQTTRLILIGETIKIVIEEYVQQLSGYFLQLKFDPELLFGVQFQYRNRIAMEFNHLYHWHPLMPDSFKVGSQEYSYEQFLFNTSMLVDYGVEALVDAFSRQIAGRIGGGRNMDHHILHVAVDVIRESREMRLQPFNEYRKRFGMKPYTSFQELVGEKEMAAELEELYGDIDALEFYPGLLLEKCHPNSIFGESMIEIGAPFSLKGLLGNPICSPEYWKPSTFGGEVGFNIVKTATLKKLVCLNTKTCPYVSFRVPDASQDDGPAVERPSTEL
Procedure: as §1, §2, §3

[6] = system: IL-6; test: In vitro measurement of IL-6 in human PBMC (LPS stimulated); assay type: cell-based
Procedure: In Vitro Measurement of Interleukin-6(IL-6)
This assay determins the effect of test compounds on the production of IL-6 in human PBMC (Physiol. Res. 52: 593-598, 2003). Compounds were tested for their ability to inhibit the activity of IL-6 in human PBMC. PBMC were isolated from blood using BD Vacutainer CPT™ Cell preparation tube (BD Bio Science) and suspended in RPMI medium. The test compounds were pre-incubated with PBMC (0.5 million/incubation well) for 15 minutes at 37° C. and then stimulated with Lipopolysaccharide (Escherichia coli: B4; 1 μg/ml) for 18 hours at 37° C. in 5% CO2. The levels of IL-6 in cell culture medium were estimated using enzyme-linked immunosorbent assay performed in a 96 well format as per the procedure of the manufacturer (Cayman Chemical, Ann Arbor, USA).

[7] = target: T2, COX-2 (Homo sapiens, UniProt P35354); test: Human whole blood assay (PGE-2 inhibition, COX-2); assay type: cell-based; conditions: LPS stimulated human whole blood, NA = No activity, read-out: % PGE-2 Inhibition in hWBA
T2 construct: Fresh blood was collected in tubes containing sodium heparin by vein puncture from healthy male volunteers; endogenous in cells; host or cells: human whole blood from healthy male volunteers, stimulated with LPS
T2 sequence (P35354 18-604): T1 sequence (P35354 18-604)
Procedure: In Vitro Evaluation of Cyclooxygenase-2 (Cox-2) Inhibition Activity
The COX-2 inhibition activities of the compounds illustrated in the examples were determined by the following method.
Human whole blood provides a protein and cell rich milieu appropriate for the study of the biochemical efficacy of anti-inflammatory compounds such as selective COX-2 inhibitors. […] This correlates with the observation that COX-2 inhibitors have no effect on prostaglandin E2 (PGE2) production in normal blood. These inhibitors were active only after incubation of human blood with lipopolysaccharide (LPS), which induces COX-2 production in the blood.
Fresh blood was collected in tubes containing sodium heparin by vein puncture from healthy male volunteers. The subjects should have no apparent inflammatory conditions and should have not taken NSAIDs for at least 7 days prior to blood collection. Blood was preincubated with aspirin in vitro (12 μg/ml, at time zero) to inactivate COX-1 for 6 hours. Then test compounds (at various concentrations) or vehicle were added to blood, the blood was stimulated with LPS B:4 (10 μg/ml) and incubated for another 18 hours at 37° C. water bath. After which the blood was centrifuged, plasma was separated and stored at −80° C. (J. Pharmacol. Exp. Ther, 271, 1705, 1994; Proc. Natl. Acad. Sci. USA, 96, 7563, 1999). The plasma was assayed for PGE2 using Cayman ELISA kit as per the procedure outlined by the manufacturer (Cayman Chemicals, Ann Arbor, USA).

In the case of `NS(=O)(=O)c1ccc(-c2c(-c3ccc(F)cc3)nc(C(F)(F)F)nc2N2CCNCC2)cc1` [Example 30, 4-[4-(4-Fluorophenyl)-6-piperazin-1-yl-2-(trifluoromethyl)pyrimidin-5-yl]benzenesulfonamide], the inhibition at 1 µM [1] is reported as 43.2%, the inhibition at 10 µM [1] is reported as 100% and the “TNF-α Inhibition (%) at 50 mg/kg” value [2] is reported as 84.84%.
In the case of `Fc1ccc(-c2nc(C(F)(F)F)nc(NC3CC3)c2-c2ccccc2)cc1` [Example 174, N-Cyclopropyl-6-(4-fluorophenyl)-5-phenyl-2-(trifluoromethyl)pyrimidin-4-amine], the “PDE4 inhibition at 10 μM (%)” value [3] is reported as 88%.
With `NS(=O)(=O)c1cccc(-c2c(-c3ccccc3)nc(C(F)(F)F)nc2N2CCN(c3ncccn3)CC2)c1` [Example 57] the inhibition at 1 µM [1] was 84.5%, the inhibition at 10 µM [1] was 88.9% and the inhibition at 1 µM [4] was 8.29%. For the same molecule, the inhibition at 10 µM [4] was 0.66%, the inhibition at 10 µM [5] was 5.7% and the “TNF-α Inhibition (%) at 50 mg/kg” value [2] was 52.02%.
In the case of `NS(=O)(=O)c1cccc(-c2c(-c3ccccc3)nc(C(F)(F)F)nc2N2CCN(c3ccc(C(F)(F)F)cn3)CC2)c1` [Example 115], the inhibition at 1 µM [1] is reported as 37.8%, the inhibition at 10 µM [1] is reported as 58.3% and the inhibition at 10 µM [4] is reported as 7.03%. The inhibition at 1 µM [5] was 6.29%, the inhibition at 10 µM [5] was 19.2% and the “TNF-α Inhibition (%) at 50 mg/kg” value [2] was 54.23%.
Molecule `CS(=O)(=O)c1ccc(-c2nc(C(F)(F)F)nc(OS(=O)(=O)c3cccc4ccccc34)c2-c2ccccc2)cc1` [Example 18, 6-[4-(Methylsulfonyl)phenyl]-5-phenyl-2-(trifluoromethyl)pyrimidin-4-ylnapthalenesulfonate] has a melting point of 204 to 206 °C, an inhibition at 1 µM ([6]; 1 μM, read-out: IL-6 Inhibition (%) Conc. (1 μM)) of 32.8% and an inhibition at 10 µM ([6]; 10 μM, read-out: IL-6 Inhibition (%) Conc. (10 μM)) of 41%.
For `NS(=O)(=O)c1cccc(-c2c(-c3ccc(F)cc3)nc(C(F)(F)F)nc2N2CCN(c3ncccn3)CC2)c1` [Example 54, 3-[4-(4-Fluorophenyl)-6-(4-pyrimidin-2-ylpiperazin-1-yl)-2-(trifluoromethyl)pyrimidin-5-yl]benzenesulfonamide], the inhibition at 10 µM [4] was 13.7%, the inhibition at 1 µM [5] was 34.4% and the inhibition at 10 µM [5] was 45.5%. The “TNF-α Inhibition (%) at 50 mg/kg” value [2] was 63.44%.
For `N#CCCN1CCN(c2nc(C(F)(F)F)nc(-c3ccc(F)cc3)c2-c2cccc(S(N)(=O)=O)c2)CC1` [Example 99, 3-{4-[4-(2-Cyanoethyl)piperazin-1-yl]-6-(4-fluorophenyl)-2-(trifluoromethyl)pyrimidin-5-yl}benzenesulfonamide], the “PDE4 inhibition at 10 μM (%)” value [3] was 92%.
`CS(=O)(=O)c1ccc(-c2nc(C(F)(F)F)nc(NN)c2-c2ccc(S(=O)(=O)NN)cc2)cc1` [Example 7, 4-{4-Hydrazino-6-[4-(methylsulfonyl)phenyl]-2-(trifluoromethyl)pyrimidin-5-yl}benzenesulfonohydrazide] showed a melting point of 203 to 206 °C, an inhibition at 0.25 µM ([7]; 0.25 μM) of 26.2% and an inhibition at 1 µM ([7]; 1 μM) of 1.9%.
For `NS(=O)(=O)c1cccc(-c2c(-c3ccccc3)nc(C(F)(F)F)nc2N2CCN(C(=O)C(F)(F)F)CC2)c1` [Example 172, 3-{6-Phenyl-4-[4-(trifluoroacetyl)piperazin-1-yl]-2-(trifluoromethyl)pyrimidin-5-yl}benzenesulfonamide], the “PDE4 inhibition at 10 μM (%)” value [3] was 87%.
With `NS(=O)(=O)c1cccc(-c2c(-c3ccc(F)cc3)nc(C(F)(F)F)nc2N2CCN(S(=O)(=O)C(F)(F)F)CC2)c1` [Example 77, 5-(3-Aminosulfonylphenyl)-4-(4-fluorophenyl)-2-(trifluoromethyl)-6-{4-[(trifluoromethyl)sulfonyl]piperazin-1-yl}pyrimidine] the “PDE4 inhibition at 10 μM (%)” value [3] was 94%.
`NS(=O)(=O)c1cccc(-c2c(-c3ccc(F)cc3)nc(C(F)(F)F)nc2N2CCN(c3ccccn3)CC2)c1` [Example 53, 3-[4-(4-Fluorophenyl)-6-(4-pyridin-2-ylpiperazin-1-yl)-2-(trifluoromethyl)pyrimidin-5-yl]benzenesulfonamide] gave an inhibition at 1 µM [4] of 20%, an inhibition at 10 µM [4] of 26.7% and an inhibition at 1 µM [5] of 46.3%. For the same molecule, the inhibition at 10 µM [5] was 56.9% and the “TNF-α Inhibition (%) at 50 mg/kg” value [2] was 70.93%.
